Tests used:
Assay type in all cases: cell-based
MV-4-11 = assay: CTG cell survival assay, MV-4-11; settings: Homo sapiens, MV4-11, MV-4-11 cells
How it was run: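 Cells grown in RPMI 1640 with 10% FBS were plated and cultured 24 h at 37 °C, 5% CO2, then treated with compound diluted from 10 mM DMSO stocks. Viable cells were quantified as ATP by CellTiter-Glo luminescence.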

SK-BR3/BT474 = assay: CTG cell survival assay, SK-BR3/BT474; settings: SK-BR3/BT474 cells
How it was run: (§1)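 Cells were exposed to compounds in a 3-fold dilution series, with a top final concentration of 10 uM in 0.1% DMSO. Viable cells were quantified by CellTiter-Glo ATP luminescence.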

PC-3 = assay: CTG cell survival assay, PC-3; settings: Homo sapiens, PC-3 cells
How it was run: as §1

Q: Which results are given for `Cn1cc(-c2ccc(-c3ccc4ncc5c(c4c3)n(C3CCCN(S(C)(=O)=O)C3)c(=O)n5C)cn2)cn1` (stereo not drawn) [Example 3, 3-methyl-8-(6-(1-methyl-1H-pyrazol-4-yl)pyridin-3-yl)-1-(1-(methanesulfonyl)piperidin-3-yl)-1H-imidazo[4,5-c]quinolin-2(3H)-one]?
A: EC50 (MV-4-11): < 0.2 µM; EC50 (SK-BR3/BT474): < 0.1 µM; EC50 (PC-3): < 0.05 µM

Q: For `Cn1cc(-c2ccc(-c3ccc4ncc5c(c4c3)n([C@H]3CC[C@@H](O)CC3)c(=O)n5C)cn2)cn1` [Example 18, 1-((1s,4s)-4-hydroxycyclohexyl)-3-methyl-8-(6-(1-methyl-1H-pyrazol-4-yl)pyridin-3-yl)-1H-imidazo[4,5-c]quinolin-2(3H)-one], which EC50 (MV-4-11) is on record?
A: < 0.1 µM

Q: What about the EC50 (SK-BR3/BT474) of the same compound?
A: < 0.05 µM

Q: What about the EC50 (PC-3) of the same compound?
A: < 0.05 µM

Q: Which results are given for `Cn1cc(-c2ccc(-c3ccc4ncc5c(c4c3)n([C@H]3CCN(S(C)(=O)=O)C3)c(=O)n5C)cn2)cn1` [Example 28, (S)-3-methyl-8-(6-(1-methyl-1H-pyrazol-4-yl)pyridin-3-yl)-1-(1-(methanesulfonyl)pyrrolidin-3-yl)-1H-imidazo[4,5-c]quinolin-2(3H)-one]?
A: EC50 (MV-4-11): < 0.1 µM; EC50 (SK-BR3/BT474): < 0.05 µM; EC50 (PC-3): < 0.05 µM

Q: Which EC50 (MV-4-11) does the source give for `Cn1cc(-c2ccc(-c3ccc4ncc5c(c4c3)n([C@@H]3CCCN(S(C)(=O)=O)C3)c(=O)n5C)cn2)cn1` [Example 31, (R)-3-methyl-8-(6-(1-methyl-1H-pyrazol-4-yl)pyridin-3-yl)-1-(1-(methanesulfonyl)piperidin-3-yl)-1H-imidazo[4,5-c]quinolin-2(3H)-one] here?
A: < 0.1 µM

Q: What about the EC50 (SK-BR3/BT474) of the same compound?
A: < 0.1 µM

Q: What about the EC50 (PC-3) of the same compound?
A: 0.019 µM

Source: patent publication US10047084B2, “Imidazolone derivatives, pharmaceutical compositions and uses thereof” (BEIJING FORELANDPHARMA CO. LTD., priority 2013, dated 2018)
